In PubChem BioAssay AID2060621 (Molecular Pharmacology Branch, DTP, NCI, 2025):

System: 324938-238-R-J1-PDC complex spheroids viability
Assay: Anticancer human tumor 324938-238-R-J1-PDC patient-derived bladder carcinoma cell line growth inhibition [CLK]
Settings: for IC50: curve of first compound; for viability, T/C: stronger effect = lower value
Procedure, shortened: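 Patient-derived tumor cells grown as complex spheroids with HUVEC endothelial cells and mesenchymal stem cells, treated with drug combinations. Concentrations descend in half-log steps from near clinical Cmax, or from 10 microM if Cmax unknown.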
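Note: viability read after seven days of drug exposure.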
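Throughout, for viability, T/C: 100% = DMSO vehicle control wells.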

## CC(C)CC(NC(=O)C(Cc1ccccc1)NC(=O)c1cnccn1)B(O)O (configuration not stated) + CNC(=O)c1ccc(Nc2nc(OC3CCCC3)c3c(-c4ccc5nc(C)oc5c4)c[nH]c3n2)c(OC)c1
Second compound 0.0316 µM
  IC50: 1.27 nM
Second compound 0.1 µM
  IC50: < 0.949 nM
Second compound 0.316 µM
  IC50: < 0.949 nM
Second compound 1 µM
  IC50: < 0.949 nM
Second compound 3.16 µM
  IC50: < 0.949 nM
Second compound 10 µM
  IC50: < 0.949 nM
Second compound 0.0316 µM, first compound 0.000949 µM
  viability, T/C: 66.2%
Second compound 0.0316 µM, first compound 0.003 µM
  viability, T/C: 1.72%
Second compound 0.0316 µM, first compound 0.00949 µM
  viability, T/C: 0.22%
Second compound 0.0316 µM, first compound 0.03 µM
  viability, T/C: 0.21%
Second compound 0.0316 µM, first compound 0.0949 µM
  viability, T/C: 0.13%
Second compound 0.0316 µM, first compound 0.3 µM
  viability, T/C: 0.19%
Second compound 0.1 µM, first compound 0.000949 µM
  viability, T/C: 37.7%
Second compound 0.1 µM, first compound 0.003 µM
  viability, T/C: 1.25%
Second compound 0.1 µM, first compound 0.00949 µM
  viability, T/C: 0.18%
Second compound 0.1 µM, first compound 0.03 µM
  viability, T/C: 0.13%
Second compound 0.1 µM, first compound 0.0949 µM
  viability, T/C: 0.55%
Second compound 0.1 µM, first compound 0.3 µM
  viability, T/C: 0.13%
Second compound 0.316 µM, first compound 0.000949 µM
  viability, T/C: 21.6%
Second compound 0.316 µM, first compound 0.003 µM
  viability, T/C: 1.05%
Second compound 0.316 µM, first compound 0.00949 µM
  viability, T/C: 0.17%
Second compound 0.316 µM, first compound 0.03 µM
  viability, T/C: 0.08%
Second compound 0.316 µM, first compound 0.0949 µM
  viability, T/C: 0.1%
Second compound 0.316 µM, first compound 0.3 µM
  viability, T/C: 0.13%
Second compound 1 µM, first compound 0.000949 µM
  viability, T/C: 17.3%
Second compound 1 µM, first compound 0.003 µM
  viability, T/C: 0.5%
Second compound 1 µM, first compound 0.00949 µM
  viability, T/C: 0.13%
Second compound 1 µM, first compound 0.03 µM
  viability, T/C: 0.1%
Second compound 1 µM, first compound 0.0949 µM
  viability, T/C: 0.1%
Second compound 1 µM, first compound 0.3 µM
  viability, T/C: 0.12%
Second compound 3.16 µM, first compound 0.000949 µM
  viability, T/C: 12.2%
Second compound 3.16 µM, first compound 0.003 µM
  viability, T/C: 0.3%
Second compound 3.16 µM, first compound 0.00949 µM
  viability, T/C: 0.2%
Second compound 3.16 µM, first compound 0.03 µM
  viability, T/C: 0.09%
Second compound 3.16 µM, first compound 0.0949 µM
  viability, T/C: 0.14%
Second compound 3.16 µM, first compound 0.3 µM
  viability, T/C: 0.16%
Second compound 10 µM, first compound 0.000949 µM
  viability, T/C: 12%
Second compound 10 µM, first compound 0.003 µM
  viability, T/C: 0.29%
Second compound 10 µM, first compound 0.00949 µM
  viability, T/C: 0.87%
Second compound 10 µM, first compound 0.03 µM
  viability, T/C: 0.13%
Second compound 10 µM, first compound 0.0949 µM
  viability, T/C: 1.24%
Second compound 10 µM, first compound 0.3 µM
  viability, T/C: 0.19%
